Consider three compounds from patent US6743812B1, “Pharmaceutical compositions and methods for use” (Targacept, Inc., priority 2000, dated 2004).

The nature of series [1]: Water absorption (hygroscopicity) of salts. The series is classed as physicochemical.
The next series addresses CNS nicotinic receptors (Rattus norvegicus, UniProt P09483+P12390). Put plainly: Determination of binding to relevant receptor sites. As to conditions: binding to certain CNS nicotinic receptors; read-out: Ki (inhibition constant, calculated from IC50 by the method of Cheng et al.). As to the method:
Determination of Binding to Relevant Receptor Sites
Binding of the compounds to relevant receptor sites was determined in accordance with the techniques described in U.S. Pat. No. 5,597,919 to Dull et al. Inhibition constants (Ki values), reported in nM, were calculated from the IC50 values using the method of Cheng et al., Biochem, Pharnacol. 22:3099 (1973).

The next series in a line: Water solubility of salt. The series is classed as physicochemical.
Series [2] is described as follows: Physical and chemical stability of salt. The series is classed as physicochemical.

Each structure is given as a SMILES string.

Sequence of CNS nicotinic receptors (P09483 31-630): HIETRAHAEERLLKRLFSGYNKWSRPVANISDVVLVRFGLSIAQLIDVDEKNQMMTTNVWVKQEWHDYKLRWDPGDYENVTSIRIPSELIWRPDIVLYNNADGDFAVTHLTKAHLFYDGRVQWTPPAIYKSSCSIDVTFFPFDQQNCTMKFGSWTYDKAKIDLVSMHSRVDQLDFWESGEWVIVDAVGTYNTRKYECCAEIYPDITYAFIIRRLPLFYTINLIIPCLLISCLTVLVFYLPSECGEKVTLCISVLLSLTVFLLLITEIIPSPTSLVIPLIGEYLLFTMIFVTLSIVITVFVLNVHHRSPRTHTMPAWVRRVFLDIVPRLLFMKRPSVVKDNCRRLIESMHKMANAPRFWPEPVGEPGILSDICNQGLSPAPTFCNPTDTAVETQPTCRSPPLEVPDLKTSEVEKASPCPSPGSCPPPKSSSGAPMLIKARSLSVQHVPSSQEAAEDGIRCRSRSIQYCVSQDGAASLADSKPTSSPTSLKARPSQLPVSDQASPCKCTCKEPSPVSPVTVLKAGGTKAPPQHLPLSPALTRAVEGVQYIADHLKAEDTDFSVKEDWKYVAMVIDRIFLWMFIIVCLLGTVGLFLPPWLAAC
Sequence of CNS nicotinic receptors (P12390 25-500): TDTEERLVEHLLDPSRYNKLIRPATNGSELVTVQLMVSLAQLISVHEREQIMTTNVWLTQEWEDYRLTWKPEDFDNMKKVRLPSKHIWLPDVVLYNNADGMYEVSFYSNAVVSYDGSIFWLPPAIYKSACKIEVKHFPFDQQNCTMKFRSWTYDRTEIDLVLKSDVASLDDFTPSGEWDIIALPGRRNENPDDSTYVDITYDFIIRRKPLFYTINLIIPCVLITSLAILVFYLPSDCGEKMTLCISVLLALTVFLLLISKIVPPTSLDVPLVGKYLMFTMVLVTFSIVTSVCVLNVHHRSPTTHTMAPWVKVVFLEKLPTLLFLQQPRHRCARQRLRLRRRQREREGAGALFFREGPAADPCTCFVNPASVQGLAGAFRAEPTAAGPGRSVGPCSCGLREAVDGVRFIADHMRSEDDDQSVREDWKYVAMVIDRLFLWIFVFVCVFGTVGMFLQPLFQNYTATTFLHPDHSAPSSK

`CN[C@@H](C)C/C=C/c1cncc(OC(C)C)c1.CN[C@@H](C)C/C=C/c1cncc(OC(C)C)c1.O=C(O)[C@@H](O)[C@H](O)[C@H](O)[C@@H](O)C(=O)O` [hemigalactarate of (2S)-(4E)-N-methyl-5-[3-(5-isopropoxypyridin)yl)]-4-penten-2-amine, reference compound]: the “amount of water absorbed” value in series [1] (40° C. and 70% relative humidity) amounted to 11.8%.
With `CN[C@@H](C)C/C=C/c1cncc(OC(C)C)c1` [Sample No. 2, (2S)-(4E)-N-methyl-5-[3-(5-isopropoxypyridin)yl]-4-penten-2-amine hemi-(di-p-toluoyl-D-tartrate)], the inhibition constant Ki – broadly, the equilibrium dissociation constant of an inhibitor or competing ligand from its target – at CNS nicotinic receptors was 5 nM. In addition, the “amount of water absorbed” value in series [1] (room temperature and 90% relative humidity) is listed as 3.2%. Also, the “hygroscopicity compared with other salts” value in series [1] (single salt: versus corresponding salt derived from galactaric acid (mucic acid)) is “less hygroscopic”. Moreover, in the series “Water solubility of salt”, the water solubility result is given as “water soluble”. The stability entry in series [2] is “physically and chemically stable”.
Regarding `CN[C@@H](C)C/C=C/c1cncc(OC(C)C)c1` [Sample No. 1, (2S)-(4E)-N-methyl-5-[3-(5-isopropoxypyridin)yl]-4-penten-2-amine hemi-(di-p-toluoyl-L-tartrate)], at CNS nicotinic receptors, the Ki is 6 nM.
